Publication PMC8346995, “Synthesis, Characterization, In Vitro Anticancer Potentiality, and Antimicrobial Activities of Novel Peptide–Glycyrrhetinic-Acid-Based Derivatives” (Molecules, 2021)
≈ marks a conversion by molar mass, not a printed value. Residues, ends and D or L forms follow the SMILES beside them. *: point of attachment. X1 = CC1(C(=O)*)CCC2(C)CCC3(C)C(=CC(=O)C4C5(C)CCC(O)C(C)(C)C5CCC43C)C2C1

Assays:
[1] = system: Human p53; test: Estimation of human p53 level in MCF-7 cells (ELISA); format: cell-based
Excerpt: (§1) The extrinsic pathway (death receptor) and the intrinsic pathway (mitochondrial route) are the main two routes that control a cell during apoptosis. The Bcl-2 protein introduces a central role in tumor growth or suppression the intrinsic apoptotic pathway. Conversely, the pro-apoptotic Bax acts essentially to enhance the process of cell apoptosis. Increasing the level of the anti-apoptotic Bcl-2 within the cancerous cell boosts the cell survival through inhibiting apoptosis. Accordingly, a balance situation between these two proteins determines the cell fate. Furthermore, p53 serves as a transcription factor acting as a tumor suppressor protein. This protein is expressed due to various cellular stresses such as DNA disruption. It is usually mutated in human cancers. The p53 pathway mediates either cell cycle arrest or apoptosis controlling the expression of Bcl-2 and Bax genes. […]
Human p53 present in MCF-7 cells was determined; using Human p53 ELISA-Kit (CS0070 Sigma) read using spectrophotometer at 450 nm against untreated control cells (negative control) and doxorubicin (positive control) applying the standard protocols of the manufacturers. […] Then, the reaction was terminated by adding acid, and the absorbance was measured at 450 nm.

[2] = system: human colon HCT-116 cancer cell line; test: MTT cytotoxicity assay, colon HCT-116 cancer cell line; settings: for IC50: Homo sapiens, HCT-116, read-out: IC50 (µg/mL) ± SD HCT-116
Description: (§2) Accordingly, all the newly synthesized GA-based peptides except 1 and 6 were screened for their cytotoxicity against three different human cancer cell lines: MCF-7, HCT-116, and HepG-2 cell lines at different concentrations (10, 5, 2.5, 1.25, and 0.625 µg/mL).
(§3) Human breast MCF-7, colon HCT-116, and liver HepG-2 carcinoma cell line were taken from Vacsera (Giza, Egypt). The culture was retained in RPMI 1640 medium with 1% antibiotic–antimycotic mixture (25 μg/mL amphotericin B, 10,000 μg/mL streptomycin sulfate, and 10,000 U/mL potassium penicillin), 1% L-glutamine, and complemented by 10% heat inactivated fetal bovine serum. […] This experiment was carried out according to the reported MTT assay method, and the absorbance was measured at 595 nm.

[3] = system: Streptococcus pneumonia RCMB 010010; test: Well diffusion assay, Streptococcus pneumonia; format: cell-based; settings: Streptococcus pneumonia RCMB 010010, well diffusion
Description: (§4) The newly synthesized peptides 1–8 (compound 6 was not tested) was evaluated for their antimicrobial activity of against three pathogenic Gram-positive bacteria (Staphylococcus aureus ATCC25923, Streptococcus pneumoniaRCMB 010010, and Micrococcus Luteus), three pathogenic Gram-negative bacteria viz. Escherichia coli ATCC25922, Pseudomonas aeruginosa ATCC7853, and Proteus vulgaris RCMB 010085, and the yeast Candida albicans using the well diffusion method. […] The obtained data were documented for each derivative as the average diameter of the inhibition zones (IZ) in mm for the bacterial or the yeast growth around the discs (Table 2). […] Although Micrococcus Luteus bacteria is a normal commensal of human skin and the upper respiratory tract, it acts as an opportunistic pathogen and has been associated with various diseases including meningitis, septic arthritis, and endocarditis. […] Antimicrobial activity of the tested chemical peptides was determined by the well diffusion method for pathogenic bacteria having Gram-positive bacteria (Staphylococcus aureus ATCC25923, Streptococcus pneumonia, and Micrococcus luteus) and Gram-negative bacteria (Escherichia coli ATCC25922, Pseudomonas aeruginosa ATCC7853, and Proteus sp.) and Candida albicans as human pathogen yeast using the well diffusion method.

[4] = system: MCF-7 cells; test: DNA fragmentation through DPA assay in MCF-7 cells; format: cell-based, human; settings: treated MCF-7 cells; for percentage of DNA fragmentation: untreated 7.8%
Description: (§5) Caspases are a family of cysteine proteases that are responsible for launching the programmed cell death (apoptosis). […] Cell shrinkage, chromatin condensation, and DNA fragmentation are all apoptosis events, which need the involvement of caspase-7and caspase-3 [48, 54, 56].
Assessment of DNA fragmentation of the cells was done, as described by the reported method. Briefly, the cells were lysed for 15 min on ice with 0.5% (v/v) Triton X-100, 20 mM EDTA, and […] Tris (pH 8.0). Then, the cells were centrifuged to separate intact chromatin from DNA fragments for 20 min, at 27,000 Xg. Measurement of the amount of DNA was done using a diphenylamine reagent, and the optical density was measured at 600 nm.

[5] = system: human normal skin fibroblasts cell line BJ-1; test: Cytotoxicity against normal skin fibroblasts BJ-1; format: cell-based; settings: human, 10 µg/mL
Description: The frequency and severity of side effects to normal cells at therapeutic levels is one of the most critical factors that distinguish different anticancer drugs from each other. Accordingly, the GA peptides 1–8 were furthermore screened for their cytotoxicity at 10 µg/mL against the human normal skin fibroblasts cell line BJ-1 to determine their safety upon normal cells (Figure 4).

[6] = system: human breast MCF-7 cancer cell line; test: MTT cytotoxicity assay, breast MCF-7 cancer cell line; format: cell-based; settings: Homo sapiens, MCF7; MTT, mean of three replicates; read-out: IC50 (µg/mL) ± SD MCF-7
Description: as §2, §3

[7] = system: Bcl-2; test: Estimation of Bcl-2 level in MCF-7 cells; format: cell-based, human; settings: MCF-7 cells treated at IC50 5 μg/mL for 24 h; untreated 7.20 ng/mL
Excerpt: as §1, with “genes. Thus, since compound 5 produced the most promising cytotoxic activity against breast cancer cell lines with a safety profile against the normal cells, it was of interest to study its impact on the regulation of the oncogenic markers Bax, Bcl-2, and p53.” for “genes.”
The samples and standards having Bcl-2 were estimated as previously mentioned. […] Then, the reaction was terminated by adding acid, and the absorbance was measured at 450 nm.

[8] = system: Staphylococcus aureus ATCC25923; test: Well diffusion assay, Staphylococcus aureus; format: cell-based
Description: as §4

[9] = system: Candida albicans; test: Well diffusion assay, Candida albicans; format: cell-based
Description: as §4

[10] = system: Micrococcus Luteus; test: Well diffusion assay, Micrococcus Luteus; format: cell-based
Description: as §4

[11] = system: Escherichia coli ATCC25922; test: Well diffusion assay, Escherichia coli; format: cell-based
Description: as §4

[12] = system: caspase-3; test: Human CASP-3 (caspase-3) estimation in MCF-7 cells; format: cell-based; settings: MCF-7 cells treated at IC50 for 24 h; untreated 162 ng/mL
[13] = system: Pseudomonas aeruginosa ATCC7853; test: Well diffusion assay, Pseudomonas aeruginosa; format: cell-based
Description: as §4

[14] = target: T1, Tubulin Beta (TUBb) (Homo sapiens, UniProt P07437); test: ELISA kit for Tubulin Beta (TUBb), tubulin polymerization in MCF-7 cells; format: cell-based; settings: read-out: inhibition of tubulin polymerization IC50 (tubulin B) (converted)
T1 construct: endogenous in cells; host or cells: MCF-7
T1 sequence (P07437 whole entry): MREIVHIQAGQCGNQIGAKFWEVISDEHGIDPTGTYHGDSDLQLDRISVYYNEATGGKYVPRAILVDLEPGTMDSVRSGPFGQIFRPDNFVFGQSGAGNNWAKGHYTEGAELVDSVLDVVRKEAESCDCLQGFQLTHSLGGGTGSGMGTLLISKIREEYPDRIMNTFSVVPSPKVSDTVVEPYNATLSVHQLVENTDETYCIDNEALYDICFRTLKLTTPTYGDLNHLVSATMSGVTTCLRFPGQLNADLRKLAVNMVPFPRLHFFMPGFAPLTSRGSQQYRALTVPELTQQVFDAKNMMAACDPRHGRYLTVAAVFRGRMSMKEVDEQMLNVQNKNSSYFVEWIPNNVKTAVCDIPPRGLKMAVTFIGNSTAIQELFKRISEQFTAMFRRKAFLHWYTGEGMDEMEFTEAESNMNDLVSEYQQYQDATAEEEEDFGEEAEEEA
T1 sequence (P68363 whole entry partner): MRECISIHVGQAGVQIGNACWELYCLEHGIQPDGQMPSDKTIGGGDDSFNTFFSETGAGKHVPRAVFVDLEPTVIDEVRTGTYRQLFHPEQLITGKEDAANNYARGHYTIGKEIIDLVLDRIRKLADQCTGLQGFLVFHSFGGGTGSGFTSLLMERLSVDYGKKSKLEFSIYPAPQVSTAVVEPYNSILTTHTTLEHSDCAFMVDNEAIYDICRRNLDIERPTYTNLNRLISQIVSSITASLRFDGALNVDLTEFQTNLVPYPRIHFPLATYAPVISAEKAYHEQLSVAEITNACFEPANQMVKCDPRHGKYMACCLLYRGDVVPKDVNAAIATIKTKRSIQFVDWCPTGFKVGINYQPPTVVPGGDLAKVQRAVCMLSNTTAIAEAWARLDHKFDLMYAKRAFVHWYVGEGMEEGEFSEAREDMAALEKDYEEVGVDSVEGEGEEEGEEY
Excerpt: as §5

[15] = system: caspase-7; test: Human CASP-7 (caspase-7) estimation in MCF-7 cells (ELISA); format: cell-based; settings: for level of caspase-7: MCF-7 cells treated at IC50 for 24 h, untreated 0.3 ng/mL
Description: as §5
The micro-ELISA plate provided in this kit pre-coated with CASP-7-specific antibody. A biotinylated CASP7 antibody and Avidin–horseradish p eroxidase (HRP) conjugate was added. Aspire the excess components. The substrate solution was added. Wells that contain CASP-7, biotinylated detection antibody, and Avidin-HRP conjugate will appear blue in color. The color turns yellow followed the addition of sulfuric acid solution. The optical density (OD) was measured at a wavelength of 450 nm ± 2 nm.

[16] = system: Bax; test: Estimation of Bax level in MCF-7 cells; format: cell-based, human; settings: MCF-7 cells treated at IC50 for 24 h; untreated 65.50 Pg/mL
Excerpt: as §1, with “genes. Thus, since compound 5 produced the most promising cytotoxic activity against breast cancer cell lines with a safety profile against the normal cells, it was of interest to study its impact on the regulation of the oncogenic markers Bax, Bcl-2, and p53.” for “genes.”
The levels of Bax protein were evaluated according to the reported method. […] Then, the reaction was terminated by adding acid, and optical density of the produced color was measured at 450 nm.

[17] = system: Proteus vulgaris RCMB 010085; test: Well diffusion assay, Proteus vulgaris; format: cell-based; settings: Proteus vulgaris RCMB 010085, well diffusion
Description: as §4

[18] = system: human liver cancer (HepG-2) cell line; test: MTT cytotoxicity assay, liver HepG-2 cancer cell line; format: cell-based; settings: Homo sapiens, HepG2; MTT, mean of three replicates; read-out: IC50 (µg/mL) ± SD HepG-2
Description: as §2, §3

## CC1(C(=O)NCC(=O)NCC(=O)NCC(=O)NCC(=O)O)CCC2(C)CCC3(C)C(=CC(=O)C4C5(C)CCC(O)C(C)(C)C5CCC43C)C2C1 (stereo not shown) [Compound 5, 1-(10-Hydroxy-2,4a,6a,6b,9,9,12a-heptamethyl-13-oxo-1,2,3,4,4a,5,6,6a,6b,7,8,8a,9,10,11,12,12a,12b,13,14b-icosahydropicen-2-yl)-1,4,7,10-tetraoxo-2,5,8,11-tetraazatridecan-13-oic Acid] (X1-GGGG-OH)
[1]; MCF-7, 5 μg/mL, 24 h
  rise of p53 level versus untreated MCF-7: approximately six-fold
[1]; MCF-7 cells treated at IC50 5 μg/mL for 24 h, untreated 111.07 Pg/mL
  level of p53: 679.8 pg/mL
[2]
  IC50: 5.2 ± 0.8 µg/mL (≈ 7.44 µM)
[2]; human, 10 µg/mL
  cytotoxicity percentage: 96.16%
[3]
  Diameter of Inhibition Zone (mm): 16 ± 0.12 mm
[4]
  DNA fragmentation, times the percent in untreated cells: about 4.5 fold
  percentage of DNA fragmentation: 35%
[5]
  cytotoxic effect on normal cells BJ-1: 20%
[6]
  IC50: 5 ± 0.3 µg/mL (≈ 7.15 µM)
[7]
  level of Bcl-2: 3.40 ng/mL
[8]
  Diameter of Inhibition Zone (mm): 15 ± 0.15 mm
[9]
  Diameter of Inhibition Zone (mm): 13 ± 0.17 mm
[10]
  Diameter of Inhibition Zone (mm): 30 ± 0.15 mm
[11]
  Diameter of Inhibition Zone (mm): 18 ± 0.23 mm
[12]
  level of caspase-3: 477 ng/mL
[13]
  Diameter of Inhibition Zone (mm): 17 ± 0.16 mm
[14]
  IC50: 0.848 µM
[15]; MCF-7, 5 μg/mL, 24 h
  caspase-7 level elevation versus untreated cells: about a three-fold
[15]
  level of caspase-7: 0.9 ng/mL
[16]
  level of Bax protein: 249.9 pg/mL
[17]
  Diameter of Inhibition Zone (mm): 10 ± 0.17 mm

## COc1cccc2c1C(=O)c1c(O)c3c(c(O)c1C2=O)C[C@@](O)(C(=O)CO)C[C@@H]3O[C@H]1C[C@H](N)[C@H](O)[C@H](C)O1 [DOX, doxorubicin, reference compound]
[2]
  IC50: 1.09 ± 3 µg/mL (≈ 2.01 µM)
[6]
  IC50: 7.07 ± 1 µg/mL (≈ 13 µM)
[18]
  IC50: 0.54 ± 1 µg/mL (≈ 0.994 µM)
[12]
  level of caspase-3: 650 ng/mL
[15]
  level of caspase-7: 1.9 ng/mL
[16]
  level of Bax protein: 259.2 pg/mL

## COc1cc2c(c(OC)c1OC)-c1ccc(OC)c(=O)cc1[C@@H](NC(C)=O)CC2 [colchicine, reference compound]
[4]
  percentage of DNA fragmentation: 40.7%
